Data taken from article PMC2905153 (Cell calcium, 2009).

Biological target: CRACM1/Orai1 (Homo sapiens, UniProt Q96D31)
Type: cell-based

Chain of CRACM1/Orai1 (Q96D31 whole entry): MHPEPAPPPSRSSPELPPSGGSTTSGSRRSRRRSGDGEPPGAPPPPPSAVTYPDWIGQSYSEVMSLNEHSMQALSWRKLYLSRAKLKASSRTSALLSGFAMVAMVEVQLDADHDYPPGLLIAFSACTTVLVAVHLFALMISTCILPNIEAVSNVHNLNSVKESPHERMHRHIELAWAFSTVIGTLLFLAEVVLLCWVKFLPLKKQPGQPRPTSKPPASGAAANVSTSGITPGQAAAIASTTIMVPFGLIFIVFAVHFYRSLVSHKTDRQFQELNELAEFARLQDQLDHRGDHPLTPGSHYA
Chain of CRACM1/Orai1 (Q13586 23-685 partner): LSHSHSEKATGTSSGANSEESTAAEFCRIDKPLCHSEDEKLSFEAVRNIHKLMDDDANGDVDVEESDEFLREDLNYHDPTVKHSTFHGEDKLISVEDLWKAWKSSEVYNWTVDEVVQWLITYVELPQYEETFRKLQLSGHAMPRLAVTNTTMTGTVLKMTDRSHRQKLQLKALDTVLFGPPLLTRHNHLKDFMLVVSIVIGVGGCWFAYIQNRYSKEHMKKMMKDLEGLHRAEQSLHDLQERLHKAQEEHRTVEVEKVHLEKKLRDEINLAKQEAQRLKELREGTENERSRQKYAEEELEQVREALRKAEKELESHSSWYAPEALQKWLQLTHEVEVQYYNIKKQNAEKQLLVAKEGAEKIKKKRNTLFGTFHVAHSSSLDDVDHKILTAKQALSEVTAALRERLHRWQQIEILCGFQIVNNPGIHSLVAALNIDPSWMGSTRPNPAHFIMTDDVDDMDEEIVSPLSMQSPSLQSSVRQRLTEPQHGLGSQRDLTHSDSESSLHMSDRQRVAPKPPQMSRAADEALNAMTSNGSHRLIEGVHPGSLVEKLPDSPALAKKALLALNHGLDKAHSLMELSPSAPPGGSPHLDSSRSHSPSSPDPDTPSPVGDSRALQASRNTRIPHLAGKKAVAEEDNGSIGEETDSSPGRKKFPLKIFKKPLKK

| IC50 | Substance |
| --- | --- |
| 86 ± 21 nM | DPB162-AE |
| 170 ± 68 nM | DPB163-AE |
